{"source": "patent US20060281791A1", "about": "“Methods of increasing proliferation of adult mammalian cardiomyocytes through p38 map kinase inhibition” (CHILDREN'S MEDICAL CENTER CORPORATION, priority 2005, published 2006)", "test_system": "neonatal rat cardiomyocytes", "assay": "cDNA microarray analysis (Affymetrix Rat Expression Set 230), x-fold changes of clustered genes", "assay_type": "cell-based", "settings": "72 h; experiments (1) and (2); listed as FGF", "method": "Animal experiments were performed in accordance with guidelines of Children's Hospital, Boston and UCLA. Ventricular cardiomyocytes from fetal (E19), 2-day-old (P2) and adult (250-350 g) Wistar rats (Charles River) were isolated as described with minor modifications (Engel et al. 1999; Engel et al. 2003). After digestion of fetal or neonatal hearts (0.14 mg/ml collagenase II (Invitrogen), 0.55 mg/ml pancreatin (Sigma)) cells were cultured in DMEM/F12 (GIBCO) containing 3 mM Na-pyruvate, 0.2% BSA, 0.1 mM ascorbic acid (Sigma), 0.5% Insulin-Transferrin-Selenium (100×), penicillin (100 U/ml), streptomycin (100 μg/ml), and 2 mM L-glutamine (GIBCO). Adult cardiomyocytes were cultured for 1 day in standard medium (DMEM, 25 mM Hepes, 5 mM taurine, 5 mM creatine, 2 mM L-carnitine (Sigma), 20 U/ml insulin (GIBCO), 0.2% BSA, penicillin (100 U/ml), and streptomycin (100 μg/ml)). Cells were stimulated in culture medium without BSA containing 2 mM L-glutamine. Neonatal and adult cardiomyocytes were initially cultured for 48 h in the presence of 20 μM cytosine β-D-arabinofuranoside (araC, Sigma) and 5% horse serum before stimulation to prevent proliferation of non-myocytes. Adult cardiomyocytes were incubated another 3 days with araC during stimulation. Neonatal cardiomyocytes were stimulated every day with growth factors for BrdU and H3P analyses (FGF1 and NRG-1-1β at 50 ng/ml, IL-1β at 100 ng/ml, R&D Systems, all diluted in 0.1% BSA/PBS). SB203580 and LY294002 (Calbiochem) was added every day. Adult cardiomyocytes were stimulated with fresh medium and SB203580 every 3 days.\nRNA of neonatal cardiomyocytes was prepared 72 h after stimulation using Trizol (Invitrogen). RT-PCR was performed following standard protocols (Supplemental Table S4). Affymetrix technology was applied using the Rat Expression Set 230.\nTo determine the effect of p38 inhibition on cardiomyocyte differentiation and proliferation, a specific inhibitor of p38α and p38β, SB203580, was used and evaluated using cDNA microarray analyses using neonatal rat cardiomyocytes. […] Expression changes of a subset of genes were validated by RT-PCR.\nStimulation of neonatal cardiomyocytes with FGF1 induces fetal gene expression. To determine if FGF1, in combination with p38 inhibition, can reverse differentiation and induce cell cycle re-entry, we repeated cDNA microarray analyses (Supplemental Table S1). […]", "note": "“And” between values parts separate entries of the source, which are not always exact repeats. Identical values can stand only once."}
{"substance": "FGF1: growth factor FGF1 (R&D Systems)", "values": [{"measurement": "Growth response protein (CL-6) expression, x-fold change", "value": "2.5 x-fold and 1.8 x-fold"}, {"measurement": "Hepatocyte F2alpha receptor expression, x-fold change", "value": "0.9 x-fold and 1.0 x-fold"}, {"measurement": "IBP6 expression, x-fold change", "value": "0.6 x-fold and 0.9 x-fold"}, {"measurement": "IGF1 expression, x-fold change", "value": "0.5 x-fold and 0.3 x-fold"}, {"measurement": "IGFBP3 expression, x-fold change", "value": "0.3 x-fold and 0.4 x-fold"}, {"measurement": "IL12a expression, x-fold change", "value": "2.9 x-fold and 2.8 x-fold"}, {"measurement": "IRX4 expression, x-fold change", "value": "0.7 x-fold and 0.9 x-fold"}, {"measurement": "Id1 expression, x-fold change", "value": "2.7 x-fold and 2.3 x-fold"}, {"measurement": "Id3a expression, x-fold change", "value": "2.4 x-fold and 1.9 x-fold"}, {"measurement": "Integrin, alpha 6 expression, x-fold change", "value": "2.4 x-fold and 2.5 x-fold"}, {"measurement": "Integrin, alpha 11 expression, x-fold change", "value": "1.7 x-fold and 1.2 x-fold"}, {"measurement": "Jag1 expression, x-fold change", "value": "0.4 x-fold and 0.6 x-fold"}, {"measurement": "Ki67 expression, x-fold change", "value": "1.7 x-fold and 1.5 x-fold"}, {"measurement": "Kinesin family member 22 expression, x-fold change", "value": "1.6 x-fold and 1.7 x-fold"}, {"measurement": "Kinetochore-associated protein 1 expression, x-fold change", "value": "1.9 x-fold and 2.1 x-fold"}, {"measurement": "Kruppel-like factor 2 expression, x-fold change", "value": "0.7 x-fold and 0.9 x-fold"}, {"measurement": "LDLR expression, x-fold change", "value": "4.0 x-fold and 2.7 x-fold"}, {"measurement": "Lgals1 expression, x-fold change", "value": "1.8 x-fold and 1.7 x-fold"}, {"measurement": "Lgals9 expression, x-fold change", "value": "4.3 x-fold and 3.1 x-fold"}, {"measurement": "Lhcgr expression, x-fold change", "value": "0.4 x-fold and 0.8 x-fold"}, {"measurement": "Lisch7 expression, x-fold change", "value": "0.6 x-fold and 0.8 x-fold"}, {"measurement": "Lot1 expression, x-fold change", "value": "0.3 x-fold and 0.4 x-fold"}, {"measurement": "M-protein expression, x-fold change", "value": "8.7 x-fold and 11.0 x-fold"}, {"measurement": "MAD2-LIKE 1 expression, x-fold change", "value": "1.5 x-fold and 2.8 x-fold"}, {"measurement": "MCAK expression, x-fold change", "value": "1.8 x-fold and 1.7 x-fold"}, {"measurement": "MCIP1 expression, x-fold change", "value": "3.0 x-fold and 3.3 x-fold"}, {"measurement": "MCP-3 expression, x-fold change", "value": "1.3 x-fold and 0.7 x-fold"}, {"measurement": "MDP77 expression, x-fold change", "value": "1.5 x-fold and 0.8 x-fold"}, {"measurement": "MKK6 expression, x-fold change", "value": "0.2 x-fold and 0.1 x-fold"}, {"measurement": "MLC1, atrial isoform expression, x-fold change", "value": "3.3 x-fold and 2.8 x-fold"}, {"measurement": "MLC 2a expression, x-fold change", "value": "2.7 x-fold and 2.1 x-fold"}, {"measurement": "MLC3, alkali expression, x-fold change", "value": "13.9 x-fold and 23.2 x-fold"}, {"measurement": "MPP1 expression, x-fold change", "value": "1.4 x-fold and 2.0 x-fold"}, {"measurement": "MURF1 expression, x-fold change", "value": "0.6 x-fold and 0.5 x-fold"}, {"measurement": "MURF expression, x-fold change", "value": "0.8 x-fold and 0.9 x-fold"}, {"measurement": "Mapt expression, x-fold change", "value": "1.7 x-fold and 1.9 x-fold"}, {"measurement": "Mdk expression, x-fold change", "value": "0.4 x-fold and 0.6 x-fold"}, {"measurement": "Melusin expression, x-fold change", "value": "3.8 x-fold and 3.0 x-fold"}, {"measurement": "Moesin expression, x-fold change", "value": "2.2 x-fold and 2.4 x-fold"}, {"measurement": "Multi PDZ domain protein 1 expression, x-fold change", "value": "0.3 x-fold and 0.6 x-fold"}, {"measurement": "Mustang expression, x-fold change", "value": "4.8 x-fold and 5.2 x-fold"}, {"measurement": "Myopodin expression, x-fold change", "value": "3.7 x-fold and 3.2 x-fold"}, {"measurement": "NppB expression, x-fold change", "value": "10.4 x-fold and 11.6 x-fold"}, {"measurement": "Nppa expression, x-fold change", "value": "3.1 x-fold and 3.5 x-fold"}, {"measurement": "Nr1h3 expression, x-fold change", "value": "0.7 x-fold and 0.6 x-fold"}, {"measurement": "Nrtn expression, x-fold change", "value": "0.4 x-fold and 0.6 x-fold"}, {"measurement": "Ntf3 expression, x-fold change", "value": "0.2 x-fold and 0.3 x-fold"}, {"measurement": "NuSAP expression, x-fold change", "value": "1.5 x-fold and 1.4 x-fold"}, {"measurement": "Nuclear receptor co-activator NRIF3 expression, x-fold change", "value": "1.4 x-fold and 1.2 x-fold"}, {"measurement": "Osteoblast specific factor expression, x-fold change", "value": "0.3 x-fold and 0.2 x-fold"}, {"measurement": "P57 expression, x-fold change", "value": "0.2 x-fold and 0.3 x-fold"}, {"measurement": "PAPIN expression, x-fold change", "value": "0.5 x-fold and 0.7 x-fold"}, {"measurement": "PEA-15 expression, x-fold change", "value": "2.5 x-fold and 2.1 x-fold"}, {"measurement": "PRKAR2 expression, x-fold change", "value": "1.6 x-fold and 1.2 x-fold"}, {"measurement": "PTP-RL9, receptor-type protein tyrosine phosphatase expression, x-fold change", "value": "1.1 x-fold and 0.8 x-fold"}, {"measurement": "Pdcd4 expression, x-fold change", "value": "0.8 x-fold and 0.7 x-fold"}, {"measurement": "Pdgfra expression, x-fold change", "value": "0.4 x-fold and 0.3 x-fold"}, {"measurement": "Pem expression, x-fold change", "value": "0.9 x-fold and 0.7 x-fold"}, {"measurement": "Plasminogen activator inhibitor 1 expression, x-fold change", "value": "5.3 x-fold and 8.8 x-fold"}, {"measurement": "Pleiotrophin expression, x-fold change", "value": "0.2 x-fold and 0.1 x-fold"}, {"measurement": "Polyamine-modulated factor 1 expression, x-fold change", "value": "1.5 x-fold and 1.4 x-fold"}, {"measurement": "Prc1 expression, x-fold change", "value": "2.4 x-fold and 1.9 x-fold"}, {"measurement": "Prg-1 expression, x-fold change", "value": "0.2 x-fold and 0.3 x-fold"}, {"measurement": "Protease inhibitor 7 expression, x-fold change", "value": "1.3 x-fold and 0.8 x-fold"}, {"measurement": "Protein-tyrosine phosphatase expression, x-fold change", "value": "0.5 x-fold and 0.6 x-fold"}, {"measurement": "Ptpla expression, x-fold change", "value": "3.3 x-fold and 2.2 x-fold"}, {"measurement": "Ptprc/CD45 expression, x-fold change", "value": "0.5 x-fold and 0.7 x-fold"}, {"measurement": "RAC2 expression, x-fold change", "value": "0.7 x-fold and 0.6 x-fold"}, {"measurement": "RAD51 expression, x-fold change", "value": "1.5 x-fold and 1.0 x-fold"}, {"measurement": "RNA binding motif protein 5 expression, x-fold change", "value": "0.6 x-fold and 0.5 x-fold"}, {"measurement": "ROC2 expression, x-fold change", "value": "1.6 x-fold and 2.4 x-fold"}, {"measurement": "Rac GTPase-activating protein 1 expression, x-fold change", "value": "1.3 x-fold and 1.9 x-fold"}, {"measurement": "Retinoic acid inducible protein 3 expression, x-fold change", "value": "1.5 x-fold and 1.3 x-fold"}, {"measurement": "Retinoic acid receptor, gamma expression, x-fold change", "value": "0.6 x-fold and 1.0 x-fold"}, {"measurement": "Rgpr expression, x-fold change", "value": "0.6 x-fold and 0.9 x-fold"}, {"measurement": "Rgs3 expression, x-fold change", "value": "1.3 x-fold and 1.9 x-fold"}, {"measurement": "Rho family GTPase 1 expression, x-fold change", "value": "4.1 x-fold and 3.9 x-fold"}, {"measurement": "Rho-related BTB domain containing 3 expression, x-fold change", "value": "0.5 x-fold and 0.6 x-fold"}, {"measurement": "SHARP-1/dec2/Bhlhb3 expression, x-fold change", "value": "0.2 x-fold and 0.3 x-fold"}, {"measurement": "SPARC related modular calcium binding 2 expression, x-fold change", "value": "0.3 x-fold and 0.4 x-fold"}, {"measurement": "STK38 expression, x-fold change", "value": "3.9 x-fold and 2.0 x-fold"}, {"measurement": "STk18 expression, x-fold change", "value": "1.3 x-fold and 1.9 x-fold"}, {"measurement": "Semaphorin 4B expression, x-fold change", "value": "0.6 x-fold and 0.5 x-fold"}, {"measurement": "Semaphorin 6D-1 expression, x-fold change", "value": "0.5 x-fold and 0.3 x-fold"}, {"measurement": "Sh3kbp1 expression, x-fold change", "value": "1.1 x-fold and 0.9 x-fold"}, {"measurement": "Shc SH2-domain binding protein 1 expression, x-fold change", "value": "1.6 x-fold and 1.1 x-fold"}, {"measurement": "Smooth muscle 22 protein expression, x-fold change", "value": "1.2 x-fold and 1.4 x-fold"}, {"measurement": "Snf1lk expression, x-fold change", "value": "3.5 x-fold and 3.9 x-fold"}, {"measurement": "Soluble fibroblast growth factor receptor IIIb (sKGF-R gene) expression, x-fold change", "value": "0.9 x-fold and 0.8 x-fold"}, {"measurement": "Sox4 expression, x-fold change", "value": "0.7 x-fold and 0.6 x-fold"}, {"measurement": "Sox11 expression, x-fold change", "value": "0.9 x-fold and 1.3 x-fold"}, {"measurement": "Spag5 expression, x-fold change", "value": "1.4 x-fold and 1.9 x-fold"}, {"measurement": "Sponf expression, x-fold change", "value": "0.2 x-fold and 0.3 x-fold"}, {"measurement": "Stathmin expression, x-fold change", "value": "1.2 x-fold and 1.6 x-fold"}, {"measurement": "TBX2 expression, x-fold change", "value": "1.8 x-fold and 2.0 x-fold"}, {"measurement": "Testin expression, x-fold change", "value": "0.6 x-fold and 0.7 x-fold"}, {"measurement": "Tgf beta 2 expression, x-fold change", "value": "1.4 x-fold and 1.5 x-fold"}, {"measurement": "Tgfbr2 expression, x-fold change", "value": "0.5 x-fold and 0.9 x-fold"}, {"measurement": "Thymidine kinase expression, x-fold change", "value": "1.5 x-fold and 1.9 x-fold"}, {"measurement": "Tieg expression, x-fold change", "value": "0.3 x-fold and 0.4 x-fold"}, {"measurement": "Tmeff1 expression, x-fold change", "value": "2.1 x-fold and 2.4 x-fold"}, {"measurement": "Tnfrsf12a expression, x-fold change", "value": "3.7 x-fold and 3.3 x-fold"}, {"measurement": "Topoisomerase (DNA) II alpha expression, x-fold change", "value": "1.8 x-fold and 1.7 x-fold"}, {"measurement": "Transferrin receptor expression, x-fold change", "value": "2.9 x-fold and 1.6 x-fold"}, {"measurement": "Tspan-2 expression, x-fold change", "value": "2.4 x-fold and 1.8 x-fold"}, {"measurement": "Tspan-6 expression, x-fold change", "value": "2.2 x-fold and 1.7 x-fold"}, {"measurement": "Tubulin alpha-4 expression, x-fold change", "value": "2.7 x-fold and 2.6 x-fold"}, {"measurement": "Tubulin beta class I expression, x-fold change", "value": "2.4 x-fold and 1.9 x-fold"}, {"measurement": "Tubulin, beta 2 expression, x-fold change", "value": "1.3 x-fold and 1.2 x-fold"}, {"measurement": "Unc5h2 expression, x-fold change", "value": "1.7 x-fold and 1.3 x-fold"}, {"measurement": "VEGF receptor-2FLK-1 expression, x-fold change", "value": "1.8 x-fold and 1.6 x-fold"}, {"measurement": "VEGFD expression, x-fold change", "value": "0.1 x-fold and 0.2 x-fold"}, {"measurement": "Vegfc expression, x-fold change", "value": "0.4 x-fold and 0.6 x-fold"}]}
